Laboratory results from patent US10865216B2, “Tricyclic Gyrase inhibitors” (MERCK SHARP & DOHME CORP., priority 2012, dated 2020).
Converted amounts (≈) assume the structure as drawn.

What was measured:
E. coli ATCC 25922 = assay: MIC, E. coli ATCC 25922; type: cell-based; details: Table 18, Ec
S. aureus ATCC 13709 = assay: MIC, S. aureus ATCC 13709; type: cell-based; details: Table 18, Sa

Structure (SMILES)	MIC Ec (E. coli ATCC 25922)	MIC Sa (S. aureus ATCC 13709)
CNc1cc(F)cc2c1[nH]c1nc(Sc3nncs3)nc(N3C[C@H]4C[C@@H]3C[C@H]4N)c12 [Compound 10.11]	≤ 0.5 µg/mL	≤ 0.5 µg/mL
CNc1cc(F)cc2c1[nH]c1nc(Oc3cnc4ccnn4c3)nc(N3CC[C@]4(C[C@@H]4N)C3)c12 [Compound 10.12]	≤ 0.5 µg/mL	≤ 0.5 µg/mL
CNc1cc(F)cc2c1[nH]c1nc(Oc3cnc4ccnn4c3)nc(N3C[C@H]4CCN[C@H]4C3)c12 [Compound 10.13]	≤ 0.5 µg/mL	≤ 0.5 µg/mL
CNc1cc(F)cc2c1[nH]c1nc(Oc3cnc4ccoc4c3)nc(N3C[C@H]4CCN[C@H]4C3)c12 [Compound 10.14]	≤ 0.5 µg/mL	≤ 0.5 µg/mL
CNc1cc(F)cc2c1[nH]c1nc(Oc3cnc(C(C)O)c(Cl)c3)nc(N3C[C@H]4C[C@@H]3C[C@H]4N)c12 (some centres unmarked) [Compound 10.15]	≤ 0.5 µg/mL	≤ 0.5 µg/mL
CNc1cc(F)cc2c1[nH]c1nc(Oc3cnc(C(C)O)c(Cl)c3)nc(N3CC4CCNC4C3)c12 (centres unmarked) [Compound 10.16]	≤ 0.5 µg/mL	≤ 0.5 µg/mL
CNc1cc(F)cc2c1[nH]c1nc(Oc3cnc(C(C)O)c(Cl)c3)nc(N3CC4C[C@@H](N)C4C3)c12 (some centres unmarked) [Compound 10.17]	≤ 0.5 µg/mL	≤ 0.5 µg/mL
CNc1cc(F)cc2c1[nH]c1nc(Oc3cnc4ccnn4c3)nc(N3C[C@@H]4[C@H](N)C[C@]4(C)C3)c12 [Compound 10.18]	≤ 0.5 µg/mL	≤ 0.5 µg/mL
CNc1cc(F)cc2c1[nH]c1nc(Oc3cnc4c(C)cnn4c3)nc(N3C[C@H]4C[C@@H]3C[C@H]4N)c12 [Compound 10.19]	≤ 0.5 µg/mL	≤ 0.5 µg/mL
CNc1cc(F)cc2c1[nH]c1nc(Oc3cnc4c(C)cnn4c3)nc(N3C[C@H](N)C4(CC4)C3)c12 [Compound 10.20]	≤ 0.5 µg/mL	≤ 0.5 µg/mL
CNc1cc(F)c(F)c2c1[nH]c1nc(Oc3cnc4ccnn4c3)nc(N3C[C@H]4C[C@@H]3C[C@H]4N)c12 [Compound 10.21]	≤ 0.5 µg/mL	≤ 0.5 µg/mL
CNc1cc(F)cc2c1[nH]c1nc(Oc3ccn4ccnc4c3)nc(N3C[C@H]4C[C@@H]3C[C@H]4N)c12 [Compound 10.22]	≤ 0.5 µg/mL	≤ 0.5 µg/mL
CNc1cc(F)cc2c1[nH]c1nc(Oc3cnc4c(Cl)cnn4c3)nc(N3C[C@H]4C[C@@H]3C[C@H]4N)c12 [Compound 10.23]	≤ 0.5 µg/mL	≤ 0.5 µg/mL
CNc1cc(F)cc2c1[nH]c1nc(Oc3cnc4c(C)cnn4c3)nc(N3C[C@H]4CCN[C@H]4C3)c12 [Compound 10.24]	≤ 0.5 µg/mL	≤ 0.5 µg/mL
CNc1cc(F)c(F)c2c1[nH]c1nc(Oc3cnc([C@H](C)O)nc3)nc(N3C[C@H]4C[C@@H]3C[C@H]4N)c12 [Compound 10.25]	≤ 0.5 µg/mL	≤ 0.5 µg/mL
CNc1cc(F)c(F)c2c1[nH]c1nc(Oc3cnc4c(C)cnn4c3)nc(N3C[C@H]4C[C@@H]3C[C@H]4N)c12 [Compound 10.26]	≤ 0.5 µg/mL	≤ 0.5 µg/mL
CNc1cc(F)cc2c1[nH]c1nc(Oc3cnc(/C(C)=N/OC)nc3)nc(N3C[C@H]4C[C@@H]3C[C@H]4N)c12 [Compound 10.27]	≤ 0.5 µg/mL	≤ 0.5 µg/mL
CNc1cc(F)c(F)c2c1[nH]c1nc(Oc3cnc4ccnn4c3)nc(N3C[C@H]4C[C@@H](N)[C@H]4C3)c12 [Compound 10.28]	≤ 0.5 µg/mL	≤ 0.5 µg/mL
CNc1cc(F)cc2c1[nH]c1nc(Oc3cnc(C(C)O)c(F)c3)nc(N3C[C@H]4C[C@@H]3C[C@H]4N)c12 (some centres unmarked) [Compound 10.29]	≤ 0.5 µg/mL	≤ 0.5 µg/mL
CNc1cc(F)cc2c1[nH]c1nc(Oc3cnc4c(C)cnn4c3)nc(N3CC4C[C@@H](N)C4C3)c12 (some centres unmarked) [Compound 10.30]	≤ 0.5 µg/mL	≤ 0.5 µg/mL
CNc1cc(F)c(F)c2c1[nH]c1nc(Oc3cnc([C@@H](C)O)nc3)nc(N3CC4NCC[C@@H]4C3)c12 (some centres unmarked) [Compound 10.31]	≤ 0.5 µg/mL	≤ 0.5 µg/mL
CNc1cc(F)c(F)c2c1[nH]c1nc(Oc3cnc(C)nc3)nc(N3CC4NCC[C@@H]4C3)c12 (some centres unmarked) [Compound 10.32]	≤ 0.5 µg/mL	≤ 0.5 µg/mL
CNc1cc(Cl)cc2c1[nH]c1nc(Oc3cnc(C(C)O)nc3)nc(N3C[C@H]4C[C@@H]3C[C@H]4N)c12 (some centres unmarked) [Compound 10.33]	≤ 0.5 µg/mL	≤ 0.5 µg/mL
CNc1cc(F)cc2c1[nH]c1nc(Oc3cnc4scnc4c3)nc(N3C[C@H]4C[C@@H]3C[C@H]4N)c12 [Compound 10.34]	≤ 0.5 µg/mL	≤ 0.5 µg/mL
CNc1cc(F)cc2c1[nH]c1nc(Oc3cnc4c(F)cnn4c3)nc(N3C[C@H]4C[C@@H]3C[C@H]4N)c12 [Compound 10.35]	≤ 0.5 µg/mL	≤ 0.5 µg/mL

Structure (SMILES)	MIC Ec (E. coli ATCC 25922)	MIC Sa (S. aureus ATCC 13709)
CNc1cc(F)cc2c1[nH]c1nc(Oc3cnc4cc(C5CC5)nn4c3)nc(N3C[C@H]4C[C@@H]3C[C@H]4N)c12 [Compound 10.36]	≤ 0.5 µg/mL	≤ 0.5 µg/mL
CNc1cc(Cl)cc2c1[nH]c1nc(Oc3cnc4ccnn4c3)nc(N3C[C@H]4C[C@@H]3C[C@H]4N)c12 [Compound 10.37]	≤ 0.5 µg/mL	≤ 0.5 µg/mL
CNc1cc(F)cc2c1[nH]c1nc(Sc3nc4cccnc4[nH]3)nc(N3C[C@H]4C[C@@H]3C[C@H]4N)c12 [Compound 10.38]	≤ 0.5 µg/mL	≤ 0.5 µg/mL
CNc1cc(F)cc2c1[nH]c1nc(Oc3cnc4c(C)cnn4c3)nc(N3CC4C(N)C4C3)c12 (centres unmarked) [Compound 10.40]	≤ 0.5 µg/mL	≤ 0.5 µg/mL
CNc1cc(F)cc2c1[nH]c1nc(Nc3cnc(C)nc3)nc(N3C[C@H]4C[C@@H]3C[C@H]4N)c12 [Compound 10.41]	≤ 0.5 µg/mL	≤ 0.5 µg/mL
CCOC(=O)c1csc(Nc2nc(N3C[C@H]4C[C@@H]3C[C@H]4N)c3c(n2)[nH]c2c(NC)cc(F)cc23)n1 [Compound 10.42]	1 µg/mL (≈ 2.01 µM)	≤ 0.5 µg/mL
CNc1cc(F)cc2c1[nH]c1nc(Nc3cnc4c(c3)nnn4C(C)C)nc(N3C[C@H]4C[C@@H]3C[C@H]4N)c12 [Compound 10.43]	1 µg/mL (≈ 1.99 µM)	≤ 0.5 µg/mL
CNc1cc(F)cc2c1[nH]c1nc(Nc3cccnc3)nc(N3C[C@H]4C[C@@H]3C[C@H]4N)c12 [Compound 10.44]	≤ 0.5 µg/mL	≤ 0.5 µg/mL
CNc1cc(F)cc2c1[nH]c1nc(Nc3cnc4ccnn4c3)nc(N3C[C@H]4C[C@@H]3C[C@H]4N)c12 [Compound 10.45]	≤ 0.5 µg/mL	≤ 0.5 µg/mL
CNc1cc(F)cc2c1[nH]c1nc(Nc3cnn4ccnc4c3)nc(N3C[C@H]4C[C@@H]3C[C@H]4N)c12 [Compound 10.46]	≤ 0.5 µg/mL	≤ 0.5 µg/mL
CNc1cc(F)cc2c1[nH]c1nc(Cc3cnn(C)c3)nc(N3C[C@H]4C[C@@H]3C[C@H]4N)c12 [Compound 10.47]	8 µg/mL (≈ 19 µM)	1 µg/mL (≈ 2.38 µM)
CNc1cc(F)cc2c1[nH]c1nc(NCc3cccnc3)nc(N3C[C@H]4C[C@@H]3C[C@H]4N)c12 [Compound 10.48]	16 µg/mL (≈ 37 µM)	8 µg/mL (≈ 18.5 µM)
CNc1cc(F)cc2c1[nH]c1nc(SCc3cccnc3)nc(N3C[C@H]4C[C@@H]3C[C@H]4N)c12 [Compound 10.49]	2 µg/mL (≈ 4.45 µM)	≤ 0.5 µg/mL
CNc1cc(F)cc2c1[nH]c1nc(Oc3ccc4ccnn4c3)nc(N3C[C@H]4C[C@@H]3C[C@H]4N)c12 [Compound 10.50]	≤ 0.5 µg/mL	≤ 0.5 µg/mL
CNc1cc(F)cc2c1[nH]c1nc(NCc3cccnc3)nc(N3C[C@H]4C[C@@H]3C[C@H]4N)c12 [Compound 10.51]	16 µg/mL (≈ 37 µM)	4 µg/mL (≈ 9.25 µM)
CNc1cc(F)cc2c1[nH]c1nc(Oc3ccc4ccnn4c3)nc(N3C[C@H]4CCN[C@H]4C3)c12 [Compound 10.52]	≤ 0.5 µg/mL	≤ 0.5 µg/mL
CNc1cc(F)cc2c1[nH]c1nc(Oc3ccc4ccnn4c3)nc(N3C[C@H]4C[C@@H](N)[C@H]4C3)c12 [Compound 10.53]	≤ 0.5 µg/mL	≤ 0.5 µg/mL
CNc1cc(F)cc2c1[nH]c1nc(Oc3cnc(C)nc3)nc(N3CCOCC3)c12 [Compound 10.54]	≤ 0.5 µg/mL	≤ 0.5 µg/mL
CNc1cc(F)cc2c1[nH]c1nc(Oc3cnc4c(C(C)O)cnn4c3)nc(N3C[C@H]4C[C@@H]3C[C@H]4N)c12 (some centres unmarked) [Compound 10.55]	1 µg/mL (≈ 1.99 µM)	≤ 0.5 µg/mL
CNc1cc(F)cc2c1[nH]c1nc(Oc3cnc4ccnn4c3)nc(N3CC4(CCC4N)C3)c12 (centres unmarked) [Compound 10.56]	≤ 0.5 µg/mL	≤ 0.5 µg/mL
CNc1cc(F)cc2c1[nH]c1nc(Oc3ccc4ccnn4c3)nc(N3CC4(CCC4N)C3)c12 (centres unmarked) [Compound 10.57]	≤ 0.5 µg/mL	≤ 0.5 µg/mL
CNc1cc(F)cc2c1[nH]c1nc(Oc3cnc([C@@H](C)O)nc3)nc(N3CC4(CC[C@H]4N)C3)c12 [Compound 10.59]	≤ 0.5 µg/mL	≤ 0.5 µg/mL
CNc1cc(F)cc2c1[nH]c1nc(NCc3cnc(C)nc3)nc(N3C[C@H]4C[C@@H]3C[C@H]4N)c12 [Compound 10.60]	16 µg/mL (≈ 35.8 µM)	8 µg/mL (≈ 17.9 µM)
CNc1cc(F)cc2c1[nH]c1nc(Oc3cnc(C)nc3)nc(N3CC4(CC/C4=N\O)C3)c12 [Compound 10.61]	2 µg/mL (≈ 4.46 µM)	0.03 µg/mL (≈ 0.0669 µM)
